Data from US9150586B2, “Piperidino-dihydrothienopyrimidine sulfoxides and their use for treating COPD and asthma” (Boehringer Ingelheim International GmbH, priority 2011, dated 2015).
Entries after “also recorded” stand apart in the source; their conditions may differ.

Tests used:
[1] = test system: LPS-induced neutrophil influx into bronchoalveolar lavage fluid; experiment: LPS-induced lung inflammation model: inhibition of LPS-induced neutrophil influx into bronchoalveolar lavage fluid; assay type: in vivo, male Wistar rats; settings: for ED50 (half-maximal effective dose), inhibition of LPS-induced neutrophil influx into BALF: male Wistar rats, oral by gavage, BALF 4 hours after end of LPS exposure, nonlinear fit; for ED50 found in efficacy studies in the rat (restated in dose table): p.o., LPS-induced neutrophil influx
Description: The anti-inflammatory activity of Examples 1 and 2 and of Prior art compounds A and D was assessed in an in vivo LPS-induced lung inflammation model in rats.
As a measure of the pharmacological potency of the above mentioned compounds the half-maximal effective dose (ED50) in regard to the inhibition of lipopolysaccharide-induced (LPS-induced) neutrophil influx into the bronchoalveolar lavage fluid (BALF) was determined by assessing the dose response relationship. Bacterial endotoxins (lipopolysaccharides [LPS]) are components of the outer bacterial cell membrane which play an important role in the pathogenesis of infections with gram-negative bacteria. It is known that inhalation of such aerosolized LPS induces a dose-dependent increase in neutrophils to lung tissues and airspaces in rats which may be detected by analyzing the amount of neutrophils in the bronchoalveolar lavage fluid (BALF). However, this dose-dependent increase of neutrophils in the BALF should be diminished in a dose-dependent way in the presence of an effective PDE4-inhibitor.
Male Wistar rats (HanWistar) from an approved local distributor were used for the experiments. The ordered weight of the animals was in the range of 200-250 g. Animals were fasted overnight before the experiment. A total number of 32 animals were used for each experiment. Eight animals (n=8) per dose were used for the treatment groups, […].
The animals of the LPS-control and of the negative control groups received“vehicle only” (“vehicle only” corresponds to 10 ml/kg body weight 0.5% Natrosol solution). The other groups were treated with the different doses of either Example compound 1, Example compound 2, Prior art compound A or Prior art compound D respectively (see Table D).
The amount of compound for the highest concentration tested for each compound was suspended in 10 ml 0.5% Natrosol (Hydroxyethylcellulose) solution and then diluted to the respective concentrations as shown in Table D. The respective compound suspension or “vehicle only” (10 ml/kg body weight 0.5% Natrosol solution) was administered orally by gavage. The resulting doses of the individual compounds corresponded to Table D:
One hour (0.5 hour for Prior art compound A and for Prior art compound D) after compound application (time set to allow for sufficient exposure as guided by prior pharmacokinetic experiments) the animals were exposed to nebulised/aerosolized LPS. The whole body exposure of 12 animals each was performed in a plexi glas chamber. Animals were separated/individualized with perforated metal plates. The aerosol was generated with a commercially available nebuliser (PARI Master+PARI LL nebuliser (Pari GmbH). The concentration of the nebulized LPS-solution was 1 mg/ml air. The duration of the LPS exposure was 30 minutes.
4 hours after the end of LPS exposure animals were anesthetised with Isoflorane and euthanised thereafter by cervical dislocation. The trachea was cannulated and BALF was performed using 2×5 mL lavage buffer (phosphate buffered saline (PBS)+2% BSA).
Determination of neutrophil content of the BALF was performed using an ADVIA 120 blood hemacytometer (Bayer Diagnostics). Neutrophil data were normalised (Positive Control (=LPS treatment alone)=100%, Negative Control (no LPS treatment, administration of “vehicle only”)=0%) and expressed as percent of LPS control. The ED50 was calculated using a nonlinear fit (with the Graph Pad Prism software and a sigmoidal dose response fit).
The ED50-value is the half-maximal effective dosis of the compound in question with respect to its inhibition of an LPS-induced neutrophil influx into BALF. Consequently a very small ED50-value stands for a good capability of the respective compound to prevent neutrophil influx into the lung tissue after LPS exposure and therefore for a good capacity of the respective compound to prevent inflammation of the lung tissue. […]

[2] = Gastric emptying and gastrointestinal transit in conscious rats (barium sulfate test meal); assay type: in vivo, Wistar rats; settings: for intestinal transit versus negative control: doses up to 30-fold ED50 dose p.o.
Description: In order to evaluate whether the compounds of the present invention lead to gastrointestinal side effects the compounds of the invention have been administered to rats 30 minutes before the rats were fed with a test meal comprising barium sulfate. After that it was tested whether gastric emptying and/or gastrointestinal transit in these rats was affected by the presence of these compounds.
The effects of the compounds Example 1 and Example 2 on gastric emptying and gastrointestinal transit in conscious rats has been investigated as described below. Wistar rats of both sexes weighing 130-160 g (ages: male 7 wk, female 8 wk) were used. The animals are obtained from an approved local distributor, a minimum of four days quarantine is required before use, during which time the animals are maintained under routine animal care procedures. Groups of up to 5 animals are housed in cages in a room with controlled temperature and humidity and a light/dark cycle with the lights on from 6 a.m. to 6 p.m. The animals have access to normal rodent chow and water ad libitum. The animals are transported to the laboratory on the day of experimentation. Gastric emptying as well as small intestinal propulsion are determined using a barium sulfate test meal. Five rats Crl:WI(Han) of each sex (n=10) were used. The animals were deprived of food 17 h prior to the experiment but allowed free access to water.
The drug under investigation (drug was suspended to the concentration of 10 ml/kg body weight in 0.5% Natrosol solution) or the negative control (vehicle alone was given 10 ml/kg body weight) was administered 30 min. (p.o.) before the test meal at doses calculated to be 3-fold, 10-fold or 30-fold the ED50 found in efficacy studies in the rat.
The test meal (suspension of 7.5 g barium sulfate in 10 ml salt-free water) is given orally by gavage at a dose of 2 ml/100 g body weight. Thirty minutes after the administration of the test meal the animals were killed in deep isoflurane anaesthesia by cervical dislocation. The stomach and the intestine were then exposed by laparatomy and removed.
The removed stomach was weighed, then incised, the contents removed and the empty stomach is weighed again.
The length of gut traversed with barium sulfate in relation to the whole length of the gut is determined by direct measurements using a ruler.
The gastric content was calculated from the weight difference between the filled and empty stomach and normalized to 100 g body weight. Thus, an increase in weight difference indicated an impaired gastric emptying, whereas a decrease in weight difference indicated an enhanced gastric emptying.
The length of gut traversed with barium sulphate (as judged by visual inspection) in relation to the whole length of the gut (from the pylorus to the rectum) is determined by direct measurements using a ruler.
Intestinal transit is calculated as the percentage movement of barium sulphate in the intestine in relation to the whole length of the gut. Consequently an increased intestinal transit length indicated an accelerated intestinal transit whereas a decreased intestinal transit length indicated decelerated intestinal transit.
Data are expressed as mean±standard deviation (SD). For each dose, comparisons were performed using an analysis of variance (ANOVA) and a post hoc Dunnett test to compare the various groups to the controls when the ANOVA was significant. p<0.05 was considered significant.

[3] = all tested doses up to 30-fold ED50 dose p.o.

| gastric emptying versus negative control ([2]; 3-fold ED50 dose p.o., 30 min before test meal) | gastric emptying versus negative control ([2]; 10-fold ED50 dose p.o., 30 min before test meal) | Structure (SMILES) | ED50 (half-maximal effective dose), inhibition of LPS-induced neutrophil influx into BALF [1] [mg/kg body weight] | gastric emptying versus negative control ([2]; 30-fold ED50 dose p.o., 30 min before test meal) | gastric emptying versus negative control [2, 3] | intestinal transit versus negative control [2] | ED50 found in efficacy studies in the rat (restated in dose table) [1] |
| --- | --- | --- | --- | --- | --- | --- | --- |
| – | – | [O-][S+]1CCc2nc(N3CCC(c4cccc(Cl)c4)CC3)nc(NC3(CO)CC3)c21 (stereo not shown) [Prior art compound D, reference compound] | 6.66 | – | – | – | – |
| no relevant differences | no relevant differences | [O-][S+]1CCc2nc(N3CCC(c4ccc(Cl)cc4)CC3)nc(NC3(CO)CCC3)c21 (single isomer, unassigned) [Example 1] | 0.31 | only a very moderate enhancement of the weight difference per body weight | neither showed a substantially enhanced or impaired gastric emptying | nor a substantially accelerated or decelerated intestinal transit; also recorded: no significant differences | (ED50 = 0.31 mg/kg BW |
| – | – | [O-][S+]1CCc2nc(N3CCC(c4ccc(Cl)cc4)CC3)nc(NC3(CO)CC3)c21 (stereo not shown) [Prior art compound A, reference compound] | 1.13 | – | – | – | – |
| – | – | [O-][S+]1CCc2nc(N3CCC(c4ncc(Cl)cn4)CC3)nc(NC3(CO)CCC3)c21 (single isomer, unassigned) [Example 2] | 0.1 | – | neither showed a substantially enhanced or impaired gastric emptying; also recorded: no relevant differences | nor a substantially accelerated or decelerated intestinal transit; also recorded: no relevant differences | (ED50 = 0.1 mg/kg BW |
